Assay results from patent publication US20110183978A1, “Phenylpyri(mi)dinylazoles” (Bayer CropScience AG, priority 2009, published 2011).

Assay: physchem

Structure (SMILES) | chromatographic logP (pH 2.3, LogP (pH 2.3)) | chromatographic logP (pH 2.7, logP (pH 2.7))
CC(C)n1cc(B2OC(C)(C)C(C)(C)O2)c(-c2ccc(F)cc2)n1 [[V-1], 3-(4-Fluorophenyl)-1-isopropyl-4-(4,4,5,5-tetramethyl-1,3,2-dioxaborolan-2-yl)-1H-pyrazole] | 4.46 | 4.51
COCCn1cc(B2OC(C)(C)C(C)(C)O2)c(-c2ccc(F)cc2)n1 [[V-2], 3-(4-Fluorophenyl)-1-(2-methoxyethyl)-4-(4,4,5,5-tetramethyl-1,3,2-dioxaborolan-2-yl)-1H-pyrazole] | 3.58 | 3.58
CC(C)Cn1cc(B2OC(C)(C)C(C)(C)O2)c(-c2ccc(F)cc2)n1 [[V-3], 3-(4-Fluorophenyl)-1-isobutyl-4-(4,4,5,5-tetramethyl-1,3,2-dioxaborolan-2-yl)-1H-pyrazole] | 4.89 | 4.76
CC1(C)OB(c2cn(CC(F)F)nc2-c2ccc(F)cc2)OC1(C)C [[V-4], 1-(2,2-difluoroethyl)-3-(4-fluorophenyl)-4-(4,4,5,5-tetramethyl-1,3,2-dioxaborolan-2-yl)-1H-pyrazole] | 3.84 | 3.84
CC(C)On1cc(B2OC(C)(C)C(C)(C)O2)c(-c2ccc(F)cc2)n1 [[V-5], 3-(4-Fluorophenyl)-1-isopropoxy-4-(4,4,5,5-tetramethyl-1,3,2-dioxaborolan-2-yl)-1H-pyrazole] | 4.81 | 4.81
CC1(C)OB(c2cn(OC3CCCC3)nc2-c2ccc(F)cc2)OC1(C)C [[V-6], 1-(Cyclopentyloxy)-3-(4-fluorophenyl)-4-(4,4,5,5-tetramethyl-1,3,2-dioxaborolan-2-yl)-1H-pyrazole] | 5.51 | 5.51
CC1(C)OB(c2cn(C3CC3)nc2-c2ccc(F)cc2)OC1(C)C [[V-7], 1-Cyclopropyl-3-(4-fluorophenyl)-4-(4,4,5,5-tetramethyl-1,3,2-dioxaborolan-2-yl)-1H-pyrazole] | 3.47 | 3.47
CC1(C)OB(c2cn(CC3CC3)nc2-c2ccc(F)cc2)OC1(C)C [[V-8], 1-(Cyclopropylmethyl)-3-(4-fluorophenyl)-4-(4,4,5,5-tetramethyl-1,3,2-dioxaborolan-2-yl)-1H-pyrazole] | 4.42 | 4.42
Cn1cc(B2OC(C)(C)C(C)(C)O2)c(-c2ccc(F)cc2)n1 [[V-9], 3-(4-Fluorophenyl)-1-methyl-4-(4,4,5,5-tetramethyl-1,3,2-dioxaborolan-2-yl)-1H-pyrazole] | 3.47 | 3.47
CC1(C)OB(c2cn(CCCl)nc2-c2ccc(F)cc2)OC1(C)C [[V-10], 1-(2-Chloroethyl)-3-(4-fluorophenyl)-4-(4,4,5,5-tetramethyl-1,3,2-dioxaborolan-2-yl)-1H-pyrazole] | 4.06 | 4.06
CCn1cc(Br)c(-c2ccc(F)cc2)n1 [[VI-2], 4-Bromo-1-ethyl-3-(4-fluorophenyl)-1H-pyrazole] | 3.32 | 3.37
CCn1ncc(Br)c1-c1ccc(F)cc1 [[VI-3], 4-Bromo-1-ethyl-5-(4-fluorophenyl)-1H-pyrazole] |  | 3.15
CC(C)Cn1cc(Br)c(-c2ccc(F)cc2)n1 [[VI-4], 4-Bromo-3-(4-fluorophenyl)-1-isobutyl-1H-pyrazole] | 4.34 | 4.34
CC(C)Cn1ncc(Br)c1-c1ccc(F)cc1 [[VI-5], 4-Bromo-5-(4-fluorophenyl)-1-isobutyl-1H-pyrazole] |  | 4.04
COCCn1cc(Br)c(-c2ccc(F)cc2)n1 [[VI-6], 4-Bromo-3-(4-fluorophenyl)-1-(2-methoxyethyl)-1H-pyrazole] | 3.08 | 3.08
COCCn1ncc(Br)c1-c1ccc(F)cc1 [[VI-7], 4-Bromo-5-(4-fluorophenyl)-1-(2-methoxyethyl)-1H-pyrazole] |  | 2.9
CC(c1ccccc1F)n1cc(Br)c(-c2ccc(F)cc2)n1 (stereo not drawn) [[VI-9], 4-bromo-3-(4-fluorophenyl)-1-[1-(2-fluorophenyl)ethyl]-1H-pyrazole] | 4.77 | 3.63
Fc1ccc(-c2nn(CC3CC3(Cl)Cl)cc2Br)cc1 (stereo not drawn) [[VI-10], 4-bromo-1-[(2,2-dichlorocyclopropyl)methyl]-3-(4-fluorophenyl)-1H-pyrazole] | 4.43 | 4.43
CC(C)Cn1cc(Br)c(-c2ccc(F)c(C#N)c2)n1 [[VI-11], 5-(4-Bromo-1-isobutyl-1H-pyrazol-3-yl)-2-fluorobenzonitrile] | 4.15 | 4.15
N#Cc1cccc(Cn2cc(Br)c(-c3ccc(F)cc3)n2)c1 [[VI-12], 3-{[4-Bromo-3-(4-fluorophenyl)-1H-pyrazol-1-yl]methyl}benzonitrile] | 3.93 | 3.93
Fc1ccc(-c2nn(Cc3ccccc3F)cc2Br)cc1 [[VI-13], 4-Bromo-1-(2-fluorobenzyl)-3-(4-fluorophenyl)-1H-pyrazole] | 4.39 | 4.39
CCCn1cc(Br)c(-c2ccc(F)cc2)n1 [[VI-14], 4-Bromo-3-(4-fluorophenyl)-1-propyl-1H-pyrazole] | 3.89 | 3.89

Structure (SMILES) | chromatographic logP (pH 2.3, LogP (pH 2.3)) | chromatographic logP (pH 2.7, logP (pH 2.7))
CSCCn1cc(Br)c(-c2ccc(F)cc2)n1 [[VI-15], 4-Bromo-3-(4-fluorophenyl)-1-[2-(methylsulphanyl)ethyl]-1H-pyrazole] | 3.63 | 3.63
COC(=O)C(C(C)C)n1cc(Br)c(-c2ccc(F)cc2)n1 (stereo not drawn) [[VI-16], Methyl 2-[4-bromo-3-(4-fluorophenyl)-1H-pyrazol-1-yl]-3-methylbutanoate] | 4.27 | 4.27
Fc1ccc(-c2nn(CC3OCCO3)cc2Br)cc1 [[VI-17], 4-Bromo-1-(1,3-dioxolan-2-ylmethyl)-3-(4-fluorophenyl)-1H-pyrazole] | 3.01 | 3.01
Fc1ccc(-c2nn(CC3CC3)cc2Br)cc1 [[VI-18], 4-Bromo-1-(cyclopropylmethyl)-3-(4-fluorophenyl)-1H-pyrazole] | 3.9 | 3.9
CCC(C)n1cc(Br)c(-c2ccc(F)cc2)n1 (stereo not drawn) [[VI-19], 4-Bromo-1-sec-butyl-3-(4-fluorophenyl)-1H-pyrazole] | 4.39 | 4.39
CCOCCn1cc(Br)c(-c2ccc(F)cc2)n1 [[VI-20], 4-Bromo-1-(2-ethoxyethyl)-3-(4-fluorophenyl)-1H-pyrazole] | 3.51 | 3.51
CC(CC#N)n1cc(Br)c(-c2ccc(F)cc2)n1 (stereo not drawn) [[VI-21], 3-[4-Bromo-3-(4-fluorophenyl)-1H-pyrazol-1-yl]butanonitrile] | 3.08 | 3.08
CC(C1CC1)n1cc(Br)c(-c2ccc(F)cc2)n1 (stereo not drawn) [[VI-22], 4-Bromo-1-(1-cyclopropylethyl)-3-(4-fluorophenyl)-1H-pyrazole] | 4.43 | 4.43
N#CCCn1cc(Br)c(-c2ccc(F)cc2)n1 [[VI-23], 3-[4-bromo-3-(4-fluorophenyl)-1H-pyrazol-1-yl]propanonitrile] | 2.69 | 2.69
CC(C)n1nc(-c2ccc(F)cc2)c(Br)c1C(F)(F)F [[VI-24], 4-Bromo-3-(4-fluorophenyl)-1-isopropyl-5-(trifluoromethyl)-1H-pyrazole] | 5.51 | 5.51
CC(C)On1cc(Br)c(-c2ccc(F)cc2)n1 [[VI-25], 4-Bromo-3-(4-fluorophenyl)-1-isopropoxy-1H-pyrazole] | 4.11 | 4.11
Fc1ccc(-c2nn(C3CC3)cc2Br)cc1 [[VI-26], 4-Bromo-1-cyclopropyl-3-(4-fluorophenyl)-1H-pyrazole] | 3.59 | 3.59
CC(C)(C)OC(=O)N1CCC(n2cc(Br)c(-c3ccc(F)cc3)n2)CC1 [[VI-27], Tert-butyl 4-[4-bromo-3-(4-fluorophenyl)-1H-pyrazol-1-yl]piperidin-1-carboxylate] | 4.77 | 4.77
Cn1nc(-c2ccc(F)cc2)c(Br)c1OC(F)F [[VI-b-1], 4-Bromo-5-(difluoromethoxy)-3-(4-fluorophenyl)-1-methyl-1H-pyrazole] | 3.52 | 3.52
CC(C)n1nc(-c2ccc(F)cc2)c(Br)c1OC(F)F [[VI-b-2], 4-Bromo-5-(difluoromethoxy)-3-(4-fluorophenyl)-1-isopropyl-1H-pyrazole] | 4.61 | 4.61
CC(C)Cn1nc(-c2ccc(F)cc2)c(Br)c1OC(F)F [[VI-b-3], 4-Bromo-5-(difluoromethoxy)-3-(4-fluorophenyl)-1-isobutyl-1H-pyrazole] | 4.91 | 4.91
COc1cc(F)ccc1-c1nn(C)c(OC(F)F)c1Br [[VI-b-4], 4-Bromo-5-(difluoromethoxy)-3-(4-fluoro-2-methoxyphenyl)-1-methyl-1H-pyrazole] |  | 3.15
Cn1nc(-c2ccc(F)cc2O)c(Br)c1OC(F)F [[VI-c-1], 2-[4-Bromo-5-(difluoromethoxy)-1-methyl-1H-pyrazol-3-yl]-5-fluorophenol] | 3.48 | 3.48
Fc1ccc(-c2n[nH]cc2Br)cc1 [[VII-I], 4-Bromo-3-(4-fluorophenyl)-1H-pyrazole] |  | 2.29
Fc1ccc(-c2c(-c3ccncc3)cnn2C2CCCCO2)cc1 (stereo not drawn) [[X-1], 4-[5-(4-Fluorophenyl)-1-(tetrahydro-2H-pyran-2-yl)-1H-pyrazol-4-yl]pyridine] | 1.23 | 1.23
COc1ccc(-c2c(-c3ccncc3)cnn2C2CCCCO2)c2ccccc12 (stereo not drawn) [[X-2], 4-[5-(4-methoxy-1-naphthyl)-1-(tetrahydro-2H-pyran-2-yl)-1H-pyrazol-4-yl]pyridine] | 1.61 | 
Fc1ccc(-c2c(-c3ccncc3)cnn2C2CCCCO2)c2ccccc12 (stereo not drawn) [[X-3], 4-[5-(4-fluoro-1-naphthyl)-1-(tetrahydro-2H-pyran-2-yl)-1H-pyrazol-4-yl]pyridine] | 1.72 | 
